Test [1] concerns the target T1, mGAT1 (Mus musculus, UniProt P31648).
T1 construct: expressed in transfected cells; host or cells: HEK-293
The test is described as follows: [3H]GABA uptake assay in HEK-293 cells stably expressing mGAT1. It is filed as cell-based. The note with it: for IC50: [3H]GABA uptake, read-out: pIC50 ± SEM mGAT1 (converted); for remaining [3H]GABA uptake mGAT1: in the presence of 100 μM inhibitor.

A further test deals with T2, mGAT2 (Mus musculus, UniProt P31651).
T2 construct: expressed in transfected cells; host or cells: HEK-293
T2 sequence (P31651 1-614): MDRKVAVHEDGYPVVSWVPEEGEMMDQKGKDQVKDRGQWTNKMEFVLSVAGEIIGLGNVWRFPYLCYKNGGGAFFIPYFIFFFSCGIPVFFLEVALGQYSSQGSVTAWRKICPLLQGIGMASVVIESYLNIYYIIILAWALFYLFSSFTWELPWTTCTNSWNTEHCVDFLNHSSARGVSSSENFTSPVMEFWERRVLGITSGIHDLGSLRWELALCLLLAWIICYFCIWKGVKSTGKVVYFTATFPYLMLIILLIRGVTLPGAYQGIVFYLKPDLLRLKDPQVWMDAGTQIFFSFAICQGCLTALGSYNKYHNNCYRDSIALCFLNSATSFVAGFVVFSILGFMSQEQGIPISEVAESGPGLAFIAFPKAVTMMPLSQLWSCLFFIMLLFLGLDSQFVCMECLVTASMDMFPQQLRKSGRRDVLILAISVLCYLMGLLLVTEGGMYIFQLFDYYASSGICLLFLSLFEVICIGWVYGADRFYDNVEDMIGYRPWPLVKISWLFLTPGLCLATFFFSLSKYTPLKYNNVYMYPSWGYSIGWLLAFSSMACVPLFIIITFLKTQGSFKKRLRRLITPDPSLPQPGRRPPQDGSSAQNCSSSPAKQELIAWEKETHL
The experiment in a line: [3H]GABA uptake assay in HEK-293 cells stably expressing mGAT2. Format: cell-based. The note with it: for IC50: [3H]GABA uptake, read-out: pIC50 ± SEM mGAT2 (converted); for remaining [3H]GABA uptake mGAT2: in the presence of 100 μM inhibitor.

The target of the next test is T3, mGAT3 (Mus musculus, UniProt P31649).
T3 construct: expressed in transfected cells; host or cells: HEK-293
T3 sequence (P31649 1-602): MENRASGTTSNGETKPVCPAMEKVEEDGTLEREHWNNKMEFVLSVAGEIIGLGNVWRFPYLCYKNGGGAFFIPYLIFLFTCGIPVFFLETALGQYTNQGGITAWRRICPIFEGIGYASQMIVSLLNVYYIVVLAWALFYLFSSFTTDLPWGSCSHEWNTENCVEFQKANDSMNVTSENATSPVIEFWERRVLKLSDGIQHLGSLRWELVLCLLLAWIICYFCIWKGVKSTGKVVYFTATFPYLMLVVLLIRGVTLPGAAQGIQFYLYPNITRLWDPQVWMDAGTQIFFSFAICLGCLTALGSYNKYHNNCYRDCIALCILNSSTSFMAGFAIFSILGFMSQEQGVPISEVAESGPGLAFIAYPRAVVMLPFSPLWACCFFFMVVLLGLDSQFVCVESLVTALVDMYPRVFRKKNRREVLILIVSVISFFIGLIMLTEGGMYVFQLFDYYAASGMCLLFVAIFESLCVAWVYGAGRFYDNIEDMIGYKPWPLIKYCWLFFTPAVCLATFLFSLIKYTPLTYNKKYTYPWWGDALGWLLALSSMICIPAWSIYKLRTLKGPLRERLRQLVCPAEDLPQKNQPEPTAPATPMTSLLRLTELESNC
The test is described as follows: [3H]GABA uptake assay in HEK-293 cells stably expressing mGAT3. Format: cell-based. The settings on record: [3H]GABA uptake; read-out: pIC50 ± SEM mGAT3 (converted).

The next test addresses T4, mGAT4 (Mus musculus, UniProt P31650).
T4 construct: expressed in transfected cells; host or cells: HEK-293
T4 sequence (P31650 1-627): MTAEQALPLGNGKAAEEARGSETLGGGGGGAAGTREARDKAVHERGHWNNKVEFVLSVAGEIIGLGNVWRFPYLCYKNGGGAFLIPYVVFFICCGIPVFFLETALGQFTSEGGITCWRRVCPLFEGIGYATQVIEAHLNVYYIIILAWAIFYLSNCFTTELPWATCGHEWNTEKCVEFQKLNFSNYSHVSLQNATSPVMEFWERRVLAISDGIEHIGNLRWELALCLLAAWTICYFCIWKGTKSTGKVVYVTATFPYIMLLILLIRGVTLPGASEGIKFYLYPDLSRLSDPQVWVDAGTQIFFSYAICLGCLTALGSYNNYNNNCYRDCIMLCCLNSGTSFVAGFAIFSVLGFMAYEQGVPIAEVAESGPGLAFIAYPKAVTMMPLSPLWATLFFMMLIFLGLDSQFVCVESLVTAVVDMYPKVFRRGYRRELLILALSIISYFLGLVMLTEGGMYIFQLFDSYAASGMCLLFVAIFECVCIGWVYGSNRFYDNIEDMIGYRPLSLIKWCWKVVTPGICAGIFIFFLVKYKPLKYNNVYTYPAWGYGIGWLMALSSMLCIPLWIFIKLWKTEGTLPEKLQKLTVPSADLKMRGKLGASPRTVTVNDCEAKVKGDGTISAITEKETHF
The test is described as follows: [3H]GABA uptake assay in HEK-293 cells stably expressing mGAT4. The note with it: for IC50: [3H]GABA uptake, read-out: pIC50 ± SEM mGAT4 (converted). Format: cell-based.

The target in test [2] is T1, mGAT1. The experiment in a line: competitive MS binding assay with NO711 as unlabeled marker (LC-ESI-MS/MS). The settings on record: in the presence of 100 μM inhibitor. The procedure:
Specific binding affinity toward mGAT1 was determined via a competitive mass spectrometry (MS) binding assay quantified by liquid chromatography–electrospray ionization tandem mass spectrometry (LC–ESI-MS/MS) with NO711 as an unlabeled marker.[50]
MS binding assays for mGAT1 were performed as described earlier.[50] Inhibition of mGAT1 binding by the synthesized compounds was determined in MS binding assays at a screening concentration of 100 μM and analyzed by LC–ESI-MS/MS.

On to `Cc1ccsc1C(=C1CCN([C@H](C[C@@H](C)O)C(=O)NCc2ccccc2)CC1)c1sccc1C` (relative stereo) [2RS,4RS-37a, N-Benzyl-2-{4-[bis(3-methylthiophen-2-yl)methylidene]piperidin-1-yl}-4-hydroxypentanamide], for which the IC50 on mGAT1 [1] was 26.3 µM; at mGAT2 it was 24.5 µM; at mGAT3 it was 41.7 µM; at mGAT4, 72.4 µM. Moreover, on mGAT1 [2], the “remaining NO711 binding mGAT1” value is on record as 100 μM: 74%.
For `Cc1ccsc1C(=C1CCN([C@H](C[C@@H](C)O)C(=O)NCc2ccc(F)cc2)CC1)c1sccc1C` (relative stereo) [2RS,4RS-37c, 2-{4-[Bis(3-methylthiophen-2-yl)methylidene]piperidin-1-yl}-N-[(4-fluorophenyl)methyl]-4-hydroxypentanamide] the same measures were 17.8 µM, 15.8 µM, 11.5 µM, 19.5 µM and 100 μM: 76%.
On to `C[C@@H](O)C[C@H](C(=O)NCc1ccc(Cl)cc1)N(C)CCC=C1c2ccccc2CCc2ccccc21` (relative stereo) [2RS,4RS-39b, N-(4-Chlorobenzyl)-2-((3-(10,11-dihydro-5H-dibenzo[a,d][7]annulen-5-ylidene)propyl)(methyl)amino)-4-hydroxypentanamide], for which, on mGAT1 [1], the “remaining [3H]GABA uptake mGAT1” value was 100 μM: 56%. The “remaining [3H]GABA uptake mGAT2” value at mGAT2 was 100 μM: 73%. Also, the IC50 on mGAT3 is 24 µM; at mGAT4, 9.12 µM. Moreover, the “remaining NO711 binding mGAT1” value at mGAT1 [2] is reported as 100 μM: 84%.
With `Cc1ccsc1C(=C1CCN([C@H](C[C@H](C)O)C(=O)NCc2ccccc2)CC1)c1sccc1C` (relative stereo) [2RS,4SR-37a, N-Benzyl-2-{4-[bis(3-methylthiophen-2-yl)methylidene]piperidin-1-yl}-4-hydroxypentanamide], the IC50 is 29.5 µM at mGAT1 [1], 61.7 µM on mGAT3 and 27.5 µM on mGAT4. For the same compound, at mGAT2, the “remaining [3H]GABA uptake mGAT2” value is 100 μM: 60%. For the same compound, the “remaining NO711 binding mGAT1” value on mGAT1 [2] is listed as 100 μM: 78%.
As to `C[C@H](O)C[C@H](C(=O)NCc1ccc(Cl)cc1)N(C)CCC=C1c2ccccc2CCc2ccccc21` (relative stereo) [2RS,4SR-39b, N-(4-Chlorobenzyl)-2-((3-(10,11-dihydro-5H-dibenzo[a,d][7]annulen-5-ylidene)propyl)(methyl)amino)-4-hydroxypentanamide], the “remaining [3H]GABA uptake mGAT1” value on mGAT1 [1] is 100 μM: 51%. The “remaining [3H]GABA uptake mGAT2” value on mGAT2 was 100 μM: 73%. In addition, the IC50 at mGAT3 was 10.2 µM; on mGAT4 it was 9.12 µM. Also, the “remaining NO711 binding mGAT1” value at mGAT1 [2] is reported as 100 μM: 87%.
As for `Cc1ccc(CNC(=O)[C@@H](C[C@H](C)O)N(C)CCC=C2c3ccccc3CCc3ccccc32)cc1` (relative stereo) [2RS,4SR-39c, 2-((3-(10,11-Dihydro-5H-dibenzo[a,d][7]annulen-5-ylidene)propyl)(methyl)amino)-4-hydroxy-N-(4-methylbenzyl)pentanamide], the “remaining [3H]GABA uptake mGAT1” value on mGAT1 [1] is recorded as 100 μM: 51%. In addition, the IC50 was 8.13 µM at mGAT2, 7.94 µM at mGAT3 and 6.92 µM on mGAT4. Further, the “remaining NO711 binding mGAT1” value at mGAT1 [2] is given as 100 μM: 73%.
For the compound `Cc1ccsc1C(=C1CCN(C(CC(C)O)C(=O)NCc2ccccc2Cl)CC1)c1sccc1C` (stereo not shown) [2RS,4RS-37b, 2-{4-[Bis(3-methylthiophen-2-yl)methylidene]piperidin-1-yl}-N-[(2-chlorophenyl)methyl]-4-hydroxypentanamide], the “remaining [3H]GABA uptake mGAT1” value on mGAT1 [1] was 100 μM: 52%. On mGAT2, the “remaining [3H]GABA uptake mGAT2” value is on record as 100 μM: 58%. Moreover, the IC50 is 93.3 µM at mGAT3 and 61.7 µM at mGAT4. For the same compound, the “remaining NO711 binding mGAT1” value at mGAT1 [2] is reported as 100 μM: 94%.
Consider `CC(O)CC(C(=O)NCc1ccc(F)cc1)N(C)CCC=C1c2ccccc2CCc2ccccc21` (stereo not shown) [2RS,4RS-39a, 2-((3-(10,11-Dihydro-5H-dibenzo[a,d][7]annulen-5-ylidene)propyl)(methyl)amino)-N-(4-fluorobenzyl)-4-hydroxypentanamide], for which, on mGAT1 [1], the “remaining [3H]GABA uptake mGAT1” value is recorded as 100 μM: 51%. In addition, the IC50 is 12.6 µM at mGAT2, 14.8 µM at mGAT3 and 25.1 µM on mGAT4. For the same compound, the “remaining NO711 binding mGAT1” value at mGAT1 [2] is reported as 100 μM: 110%.
Take `CC(O)CC(C(=O)NCc1ccccc1)N1CCC(=C2c3ccccc3-c3ccccc32)CC1` (stereo not shown) [2RS,4RS-41a, N-Benzyl-2-[4-(9H-fluoren-9-ylidene)piperidin-1-yl]-4-hydroxypentanamide]: on mGAT1 [1], the “remaining [3H]GABA uptake mGAT1” value was 100 μM: 49%. For the same compound, the IC50 on mGAT2 is 74.1 µM; on mGAT3, 64.6 µM. Also, the “remaining [3H]GABA uptake mGAT4” value at mGAT4 (in the presence of 100 μM inhibitor) was 52%. The “remaining NO711 binding mGAT1” value at mGAT1 [2] is given as 100 μM: 92%.
For the compound `CC(O)CC(C(=O)NCc1ccccc1)N1CCC(=C2c3ccccc3CCc3ccccc32)CC1` (stereo not shown) [2RS,4RS-43a, N-Benzyl-2-(4-(10,11-dihydro-5H-dibenzo[a,d][7]annulen-5-ylidene)piperidin-1-yl)-4-hydroxypentanamide], the IC50 on mGAT1 [1] is 17 µM; on mGAT2, 56.2 µM; on mGAT3 it was 21.4 µM; on mGAT4, 26.3 µM. For the same compound, the “remaining NO711 binding mGAT1” value on mGAT1 [2] is 100 μM: 77%.
As to `CC(O)CC(C(=O)NCc1ccc(F)cc1)N1CCC(=C2c3ccccc3CCc3ccccc32)CC1` (stereo not shown) [2RS,4RS-43b, 2-(4-(10,11-Dihydro-5H-dibenzo[a,d][7]annulen-5-ylidene)piperidin-1-yl)-N-(4-fluorobenzyl)-4-hydroxypentanamide], the figures for the IC50 at mGAT1 [1], at mGAT3 and on mGAT4 were 70.8 µM, 38 µM and 47.9 µM, respectively. In addition, the “remaining [3H]GABA uptake mGAT2” value on mGAT2 is listed as 100 μM: 59%. In addition, the “remaining NO711 binding mGAT1” value at mGAT1 [2] is on record as 100 μM: 86%.
As for `CC(O)CC(C(=O)NCc1ccccc1)N(C)CCON=C(c1ccccc1)c1ccccc1` (stereo not shown) [2RS,4RS-45, N-Benzyl-2-[(2-{[(diphenylmethylidene)amino]oxy}ethyl)(methyl)amino]-4-hydroxypentanamide], the IC50 is 43.7 ± 0.801 µM on mGAT1 [1], 45.7 µM on mGAT2, 20 µM at mGAT3 and 28.2 µM at mGAT4. Besides, at mGAT1 [2], the “remaining NO711 binding mGAT1” value is 100 μM: 100%.
With `Cc1ccc(CNC(=O)C(CO)N(C)CCC=C2c3ccccc3CCc3ccccc32)cc1` (stereo not shown) [Compound 56e, 2-((3-(10,11-Dihydro-5H-dibenzo[a,d][7]annulen-5-ylidene)propyl)(methyl)amino)-3-hydroxy-N-(4-methylbenzyl)propanamide], the IC50 at mGAT1 [1] is 18.6 µM; at mGAT2 it was 28.8 µM; on mGAT3, 20.4 µM; on mGAT4, 11.2 µM.

Values taken from article PMC8397297 (ACS Chemical Neuroscience, 2021).
